Series [1] relates to P. falciparum gametocytes. Description: Standard membrane feeding assay (SMFA), transmission to mosquitoes. It is filed as cell-based, Plasmodium falciparum. The following applies: gametocytes treated day 13 to day 17; oocysts counted day 7 after feeding. The protocol:
NF54 P. falciparum cultures were synchronized and maintained as described earlier at 5%–10% parasitemia at 4% hematocrit. Once parasitemia reached 8%–10% rings, parasites were diluted to 0.65% parasitemia in desired volume for the gametocyte cultures (10 mL for Petri dish or 6 × 5 mL for 6-well plate). Gametocyte cultures were supplied with gametocyte media consisted of O+ erythrocyte at 4% hematocrit in Roswell Park Memorial Institute (RPMI) 1640 medium supplemented with 26 mM 4-(2-hydroxyethyl)piperazine-1-ethanesulfonic acid (HEPES), 50 μg/mL hypoxanthine, 2.9% NaHCO3, and 10% heat-inactivated human serum. Sexual stage gametocytes were induced by allowing continuous growth cultures without the addition of fresh human erythrocytes ([Vaughan et al., 2012]). […] Stage V gametocytemia was determined by light microscopy examination of methanol fixed, Giemsa stained thin smear under 1,000 magnification. […]
On day 7 after feeding with gametocyte bloodmeal, infected mosquitoes were aspirated into a cup and anesthetized by incubating them at −20°C for 5 min until immobilized. […] Collected midguts were maintained in 1X phosphate buffered saline (PBS, GIBCO) until stained with mercurochrome for 20 min then placed on a glass slide and counted for oocysts by microscopy.

Another series deals with 3D7 parasite cultures. Description: Time of drug killing. The following applies: 80nM WM4, 40nM WM5, 5nM WM382, added to early rings. Format: cell-based, Plasmodium falciparum. The procedure: 3D7 parasite cultures were synchronized using 5% sorbitol (Sigma) twice at 46 h intervals then again when the culture was a mix of late schizonts and early rings. […] The parasitemia of each culture was quantitated every 8 h for 48 h by collecting 50 μL samples for counting by flow cytometry (as previously described). The developmental stage of the parasites was confirmed at each time point by microscopic examination of Giemsa stained thin blood films. Media and compound were replaced at the 32 h time point.

For series [2], the system named is P. falciparum schizonts (3D7). Description: P. falciparum schizont egress inhibition assay. The note with it: compared with control. It is filed as cell-based, Plasmodium falciparum. The protocol: Parasites purified by magnet separation (MACS; Miltenyi Biotec) were eluted into complete RPMI containing 1 nM Compound 1 (C1) to prevent further egress and synchronize egress to within a 5 min window ([Pino et al., 2017]). When schizont preparations were fully mature, the C1 was washed out with warm complete RPMI-HEPES medium and schizonts transferred to a microscopy chamber for live video time lapse (1 frame per 0.5 s) imaging under DIC conditions using a Zeiss Live Cell Axio observer microscope with x63 oil immersion objective and Zen Blue software used for image capture. Videos (Videos S1 and S2) were processed using Fiji (https://www.nature.com/articles/nmeth.2019). Total parasite numbers and egress events were calculated over 5 min window and expressed as average ± SD of 3 replicate experiments. Because the purified late-stage parasites cannot be fully synchronized to egress within the observation time window, only a proportion of the schizonts will egress during the period of observation. Because all treatment groups originated from the same culture (ie those treated with compound and DMSO vehicle control) the developmental stage is consistent between treatments and the difference in egress quantitation can be attributable to the drug treatment.

The test system of series [3] is WM5 and 4 resistant P. falciparum. Description: microbe, parasite or virus in culture. It is filed as cell-based, Plasmodium falciparum. The procedure: After 72 h incubation at 37°C each well was fixed at room temperature for 30 min with 50 μL of 0.25% glutaraldehyde (ProSciTech) diluted in PBS. Following centrifugation at 1200 rpm for 1 min, supernatants were discarded and parasites were stained with 50 μL of 5X SYBR Green (Invitrogen) diluted in PBS. 50,000 cells were counted by flow cytometry using a Cell Lab Quanta SC – MPL Flow Cytometer (Beckman Coulter) ([Bacon et al., 2007]). Growth was expressed as a percentage of the parasitemia obtained using a vehicle control. All samples were tested in triplicate. EC50 values were determined using GraphPad Prism.
The parent and resistant lines were then cloned by limiting dilution, the EC50 for each line was determined and genomic DNA was purified from clonal parasites (QIAGEN Blood and Tissue Kit).

The target in a further series is T1, PMX (Plasmodium falciparum, UniProt Q8IAS0).
T1 construct: endogenous in cells
T1 sequence (Q8IAS0 222-573): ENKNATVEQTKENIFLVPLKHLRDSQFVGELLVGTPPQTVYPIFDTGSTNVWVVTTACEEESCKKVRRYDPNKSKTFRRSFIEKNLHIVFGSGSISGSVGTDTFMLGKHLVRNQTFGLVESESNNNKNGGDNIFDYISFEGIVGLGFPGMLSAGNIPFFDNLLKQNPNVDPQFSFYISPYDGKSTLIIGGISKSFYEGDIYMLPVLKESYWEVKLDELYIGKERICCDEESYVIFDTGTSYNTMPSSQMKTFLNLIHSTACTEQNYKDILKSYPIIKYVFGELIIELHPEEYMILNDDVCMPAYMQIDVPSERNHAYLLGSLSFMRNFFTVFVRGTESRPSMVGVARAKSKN
It is filed as binding, P. falciparum. The following applies: CETSA.

The subject of series [4] is P. falciparum merozoites (3D7). Description: Invasion assay. It is filed as cell-based, Plasmodium falciparum. The following applies: 40 nM WM4; 2.5 nM WM382; merozoites released by mechanical rupture. The protocol: Late-stage parasites (> 40 h post invasion) were enriched by magnet separation (MACS; Miltenyi Biotec) and allowed to develop to fully segmented schizont-stage parasites. To prevent schizont rupture and merozoites release, control parasites were incubated with 1 μM compound 1 (C1). […] Filtrate containing purified merozoites was immediately added to fresh erythrocytes (70%–80% hematocrit), incubated in a shaker (1,100 rpm) at 37°C for 20 min to allow invasion of host cells, and then diluted to 2% hematocrit. After 24 h incubation at 37°C, invasion was evaluated by measuring parasitemia by microscopy (Giemsa-stained thin smears) and flow cytometry (100,000 cells counted with FACSCalibur, BD).

For another series, the system named is HepG2 cells. Description: EC50 for HepG2 cells. Format: cell-based. The note with it: Homo sapiens.
Series [5] is described as follows: Pharmacokinetic attributes (no method given). The following applies: in vivo.
The mark [6] stands for this setting: Plasmodium falciparum, 3D7, read-out: EC50, 3D7-WM4.1, WM4-resistant line 3D7-WM4.1.
Setting [7] is: Plasmodium falciparum, 3D7, read-out: EC50, 3D7-WM5.1, WM5-resistant line 3D7-WM5.1.

Each structure is given as a SMILES string. Values joined by “and” are separate entries in the source; they are usually repeats but may differ in a detail not shown here. Identical values can stand only once. Like-named read-outs stand apart in the source and are kept apart here.

One may read the EC50 as the concentration giving half of the maximal effect.

Protocol for PMX: Lysate CETSA experiments were conducted essentially as described ([Dziekan et al., 2019]). Samples for CETSA studies were prepared using highly synchronous schizont stage P. falciparum 3D7-PMIX_HA and 3D7-PMX_HA parasites. […] After 2–4 h incubation, mature schizonts were washed once with PBS and pelleted infected red blood cells were lysed in 20 volumes of 0.15% (w/v) saponin in PBS and incubated on ice for 20 min. Parasites were washed 3 times in ice-cold PBS and the final pellet was resuspended in 10 volumes of lysis buffer (0.4% NP-40 (Roche) / PBS) and lysed by three freezing (dry ice/ethanol bath) - thawing cycles. The lysates were cleared by centrifugation at 16,000 g for 30 min and the supernatant containing soluble parasite proteins kept at −80°C until use. […] The proteins were electrophoretically transferred to nitrocellulose membrane using a dry-blotting system (iBlot, Thermo Fisher Scientific). After blocking the membrane in 5% non-fat milk in TBST (M-TBST), PMIX_HA and PMX_HA were detected with anti-HA mAb 12CA5 (produced in-house) followed by HRP-conjugated a-mouse IgG Abs (Merck). Blots were developed with ECL Western Blotting Substrate (Thermo Fisher Scientific), and the images were generated and analyzed using ChemiDoc Gel Imaging System and Image Lab Software (Bio-Rad).

Consider `CCC1(CC)CC(=O)N([C@@H]2CCOc3ccc(C(=O)N[C@H]4CC(C)(C)Oc5ccccc54)cc32)C(=N)N1` [WM382], for which the “oocyst numbers in mosquitoes fed treated gametocytes” value in series [1] is “potently inhibited oocyst development”. Further, the “stage of arrest of blood-stage development” value in the series with 3D7 parasite cultures is on record as “arrested at late schizont stage”. Also, the “egress of merozoites from the erythrocyte” value in series [2] is recorded as “potently inhibited egress of merozoites”. Moreover, the EC50 in series [3] (setting [6]) worked out at 1.88 ± 0.03 nM; in series [3] (setting [7]), 2.04 ± 0.05 nM; in the series on HepG2 cells it was 24.8 ± 2.2 µM. Moreover, the “effect on thermal stability of PMX” value on PMX is listed as “significantly more thermostable”. Also, the “ability of merozoites to invade erythrocytes” value in series [4] is “unable to invade erythrocytes”.
As to `CC(NC(=O)c1cccc(C(c2ccccc2)N2C(=N)NC(C)(C(C)C)CC2=O)c1)c1ccccc1` (racemic) [WM4], the “oocyst numbers in mosquitoes fed treated gametocytes” value in series [1] is given as “no significant reduction in oocyst numbers”. In addition, the “stage of arrest of blood-stage development” value in the series on 3D7 parasite cultures is recorded as “arrested at late schizont stage”. For the same compound, the “egress of merozoites from the erythrocyte” value in series [2] is recorded as “potently inhibited egress of merozoites”. In addition, the EC50 in series [3] (setting [6]) was 113 ± 2.3 nM; in series [3] (Plasmodium falciparum, 3D7, read-out: EC50, 3D7-WM4.2, WM4-resistant line 3D7-WM4.2, Figure S1) it was 140 ± 52.7 nM; in series [3] (setting [7]) it was 93.2 ± 2.04 nM; in series [3] (Plasmodium falciparum, 3D7, read-out: EC50, 3D7-WM5.2, WM5-resistant line 3D7-WM5.2, Figure S1), 142 ± 5.5 nM; in series [3] (Plasmodium falciparum, 3D7, read-out: EC50, 3D7-WM5.3, WM5-resistant line 3D7-WM5.3, Figure S1) it was 135 ± 3.8 nM; in series [3] (read-out: EC50, 3D7-WM4.1, WM4-resistant line 3D7-WM4.1) it was 93 nM and 65.9 nM. Moreover, the EC50 in series [3] (read-out: EC50, 3D7-WM5.1, WM5-resistant line 3D7-WM5.1) came to 115 ± 18.8 nM; with HepG2 cells, 14.2 ± 2.3 µM. Besides, at PMX, the “effect on thermal stability of PMX” value is reported as “stabilized PMX”. Also, the pharmacokinetic attributes entry in series [5] is “did not have desirable pharmacokinetic attributes”. The “ability of merozoites to invade erythrocytes” value in series [4] was “significantly less able to invade”.

Values taken from PMC7146544, “Dual Plasmepsin-Targeting Antimalarial Agents Disrupt Multiple Stages of the Malaria Parasite Life Cycle” (Cell Host & Microbe, 2020).
